Laboratory results reported in patent publication US20140094424A1, “MICROBICIDAL COMPOSITIONS AND METHODS OF PRODUCTION USE THEREOF” (priority 2011, published 2014).
Like-named read-outs stand apart in the source and are kept apart here.

Columns and labels:
Ralstonia pickettii (AU) = assay type: cell-based
Description: The stock organisms were thawed and subbed prior to beginning the MBC test. Molds were subbed to SDA plates one week before, and the bacteria were subbed to TAT agar plates 24 hours prior to the start of the test. All plates were incubated at 32 degrees C.
Each bacterial organism was inoculated into 40 ml sterile saline in a centrifuge tube to create a density of MacFarland #1. Two serial dilutions of 1:100 were then made, resulting in 10^−2 and 10^−4 concentrations. Each dilution was vortexed before it was sampled, and sterile Eppendorf pipette tips were used to make each transfer. The 10^−4 dilution was spiral plated to yield the initial inoculum concentration.
MBC trays were set up with the prepared test reagent. Using a Matrix pipettor, 100 μl aliquots of reagent were distributed into the wells, diluting the amount of preservative from 100% to 10% increments, using unpreserved reagent as the diluent. In one row, 100% non-preserved reagent acted as a positive control and served as a benchmark for a full mat of growth. In well #12H, 100 μl unpreserved reagent was pipetted, and this well was not inoculated with organisms, as it served as the negative control. Once all of the trays were prepared, the prepared bacteria/mold suspensions were poured into the MBC inoculating trays. These were placed onto the reagent trays, and 0.01 ml inoculum was introduced into the 100 μl of reagent in each well.
This was done by dipping a sterile cotton swab into each well, and absorbing all of the liquid in the well. The swab was rolled onto a TAT agar plate ensuring that the entire swab touches the agar. Plates ware incubated at 32 degrees C. for 48 hours to 7 days, depending on the organism. Observations for growth were performed by a scoring matrix using + for a full mat, +/− for some growth, a numerical value for an actual colony count, and—for no growth.
Below are tables that contain the data obtained in Example 1. The MBC test is scored by (+) indicating a full grown mat of organisms, equivalent to the organisms in the unpreserved reagent. (+/−) indicates there is some kill evident disturbing that mat or bringing the quantities down to an almost countable level. An actual number is the actual number of colonies growing at that concentration of preservative. (−) indicates no growth found. The MBC trays were stored at room temperature for the entire test.
The materials and methods and analysis of the MBC test were the same as in Example 1.

[1] = tested on: Pseudomonas aeruginosa (L); assay: MBC (minimum bactericidal concentration) test in Wash NEXT reagent; assay type: cell-based
[2] = at 72 hours, listed as Na Azide

Cc1cc(NS(=O)(=O)c2ccc(N)cc2)no1 [Sulfamethoxazole, sulfamethoxazole]
+: MBC test growth score (Ralstonia pickettii (AU); 10% preservative, 8 hour) | MBC test growth score (Ralstonia pickettii (AU); 10% preservative, 24 hour) | MBC test growth score (Ralstonia pickettii (AU); 10% preservative, 48 hour) | MBC test growth score (Ralstonia pickettii (AU); 10% preservative, 72 hour) | MBC test growth score (Ralstonia pickettii (AU); 20% preservative, 8 hour) | MBC test growth score (Ralstonia pickettii (AU); 20% preservative, 24 hour) | MBC test growth score (Ralstonia pickettii (AU); 20% preservative, 48 hour) | MBC test growth score (Ralstonia pickettii (AU); 20% preservative, 72 hour) | MBC test growth score (Ralstonia pickettii (AU); 30% preservative, 8 hour) | MBC test growth score (Ralstonia pickettii (AU); 30% preservative, 24 hour) | MBC test growth score (Ralstonia pickettii (AU); 30% preservative, 48 hour) | MBC test growth score (Ralstonia pickettii (AU); 30% preservative, 72 hour) | MBC test growth score (Ralstonia pickettii (AU); 40% preservative, 8 hour) | MBC test growth score (Ralstonia pickettii (AU); 40% preservative, 24 hour) | MBC test growth score (Ralstonia pickettii (AU); 40% preservative, 48 hour) | MBC test growth score (Ralstonia pickettii (AU); 40% preservative, 72 hour) | MBC test growth score (Ralstonia pickettii (AU); 50% preservative, 8 hour) | MBC test growth score (Ralstonia pickettii (AU); 50% preservative, 24 hour) | MBC test growth score (Ralstonia pickettii (AU); 50% preservative, 48 hour) | MBC test growth score (Ralstonia pickettii (AU); 50% preservative, 72 hour) | MBC test growth score (Ralstonia pickettii (AU); 60% preservative, 8 hour) | MBC test growth score (Ralstonia pickettii (AU); 60% preservative, 24 hour) | MBC test growth score (Ralstonia pickettii (AU); 60% preservative, 48 hour) | MBC test growth score (Ralstonia pickettii (AU); 60% preservative, 72 hour) | MBC test growth score (Ralstonia pickettii (AU); 70% preservative, 8 hour) | MBC test growth score (Ralstonia pickettii (AU); 70% preservative, 24 hour) | MBC test growth score (Ralstonia pickettii (AU); 70% preservative, 48 hour) | MBC test growth score (Ralstonia pickettii (AU); 70% preservative, 72 hour) | MBC test growth score (Ralstonia pickettii (AU); 80% preservative, 8 hour) | MBC test growth score (Ralstonia pickettii (AU); 80% preservative, 24 hour) | MBC test growth score (Ralstonia pickettii (AU); 80% preservative, 48 hour) | MBC test growth score (Ralstonia pickettii (AU); 80% preservative, 72 hour) | MBC test growth score (Ralstonia pickettii (AU); 90% preservative, 8 hour) | MBC test growth score (Ralstonia pickettii (AU); 90% preservative, 24 hour) | MBC test growth score (Ralstonia pickettii (AU); 90% preservative, 48 hour) | MBC test growth score (Ralstonia pickettii (AU); 90% preservative, 72 hour) | MBC test growth score (Ralstonia pickettii (AU); 100% preservative, 8 hour) | MBC test growth score (Ralstonia pickettii (AU); 100% preservative, 24 hour) | MBC test growth score (Ralstonia pickettii (AU); 100% preservative, 48 hour) | MBC test growth score (Ralstonia pickettii (AU); 100% preservative, 72 hour) | MBC test growth score ([1]; 10% preservative, 8 hour) | MBC test growth score ([1]; 10% preservative, 24 hour) | MBC test growth score ([1]; 10% preservative, 48 hour) | MBC test growth score ([1]; 10% preservative, 72 hour) | MBC test growth score ([1]; 20% preservative, 8 hour) | MBC test growth score ([1]; 20% preservative, 24 hour) | MBC test growth score ([1]; 20% preservative, 48 hour) | MBC test growth score ([1]; 20% preservative, 72 hour) | MBC test growth score ([1]; 30% preservative, 8 hour) | MBC test growth score ([1]; 30% preservative, 24 hour) | MBC test growth score ([1]; 30% preservative, 48 hour) | MBC test growth score ([1]; 30% preservative, 72 hour) | MBC test growth score ([1]; 40% preservative, 8 hour) | MBC test growth score ([1]; 40% preservative, 24 hour) | MBC test growth score ([1]; 40% preservative, 48 hour) | MBC test growth score ([1]; 40% preservative, 72 hour) | MBC test growth score ([1]; 50% preservative, 8 hour) | MBC test growth score ([1]; 50% preservative, 24 hour) | MBC test growth score ([1]; 50% preservative, 48 hour) | MBC test growth score ([1]; 50% preservative, 72 hour) | MBC test growth score ([1]; 60% preservative, 8 hour) | MBC test growth score ([1]; 60% preservative, 24 hour) | MBC test growth score ([1]; 60% preservative, 48 hour) | MBC test growth score ([1]; 60% preservative, 72 hour) | MBC test growth score ([1]; 70% preservative, 8 hour) | MBC test growth score ([1]; 70% preservative, 24 hour) | MBC test growth score ([1]; 70% preservative, 48 hour) | MBC test growth score ([1]; 70% preservative, 72 hour) | MBC test growth score ([1]; 80% preservative, 8 hour) | MBC test growth score ([1]; 80% preservative, 24 hour) | MBC test growth score ([1]; 80% preservative, 48 hour) | MBC test growth score ([1]; 80% preservative, 72 hour) | MBC test growth score ([1]; 90% preservative, 8 hour) | MBC test growth score ([1]; 90% preservative, 24 hour) | MBC test growth score ([1]; 90% preservative, 48 hour) | MBC test growth score ([1]; 90% preservative, 72 hour) | MBC test growth score ([1]; 100% preservative, 8 hour) | MBC test growth score ([1]; 100% preservative, 24 hour) | MBC test growth score ([1]; 100% preservative, 48 hour) | MBC test growth score ([1]; 100% preservative, 72 hour)

[N-]=[N+]=[N-] [Sodium Azide, sodium azide]
+/−: MBC test growth score (Ralstonia pickettii (AU); 20% preservative, 72 hour) | MBC test growth score (Ralstonia pickettii (AU); 30% preservative, 48 hour) | MBC test growth score (Ralstonia pickettii (AU); 30% preservative, 72 hour) | MBC test growth score (Ralstonia pickettii (AU); 40% preservative, 48 hour) | MBC test growth score (Ralstonia pickettii (AU); 40% preservative, 72 hour) | MBC test growth score (Ralstonia pickettii (AU); 50% preservative, 48 hour) | MBC test growth score (Ralstonia pickettii (AU); 50% preservative, 72 hour) | MBC test growth score (Ralstonia pickettii (AU); 60% preservative, 48 hour) | MBC test growth score (Ralstonia pickettii (AU); 70% preservative, 48 hour) | MBC test growth score (Ralstonia pickettii (AU); 80% preservative, 24 hour) | MBC test growth score (Ralstonia pickettii (AU); 80% preservative, 48 hour) | MBC test growth score (Ralstonia pickettii (AU); 90% preservative, 24 hour) | MBC test growth score (Ralstonia pickettii (AU); 90% preservative, 48 hour) | MBC test growth score (Ralstonia pickettii (AU); 100% preservative, 24 hour) | MBC test growth score (Ralstonia pickettii (AU); 100% preservative, 48 hour)
7: MBC test growth score (Ralstonia pickettii (AU); 80% preservative, 72 hour)
4: MBC test growth score (Ralstonia pickettii (AU); 90% preservative, 72 hour)
2: MBC test growth score (Ralstonia pickettii (AU); 100% preservative, 72 hour)
10: MBC test growth score (Ralstonia pickettii (AU); 60% preservative, 72 hour)
+: MBC test growth score (Ralstonia pickettii (AU); 10% preservative, 8 hour) | MBC test growth score (Ralstonia pickettii (AU); 10% preservative, 24 hour) | MBC test growth score (Ralstonia pickettii (AU); 10% preservative, 48 hour) | MBC test growth score (Ralstonia pickettii (AU); 10% preservative, 72 hour) | MBC test growth score (Ralstonia pickettii (AU); 20% preservative, 8 hour) | MBC test growth score (Ralstonia pickettii (AU); 20% preservative, 24 hour) | MBC test growth score (Ralstonia pickettii (AU); 20% preservative, 48 hour) | MBC test growth score (Ralstonia pickettii (AU); 30% preservative, 8 hour) | MBC test growth score (Ralstonia pickettii (AU); 30% preservative, 24 hour) | MBC test growth score (Ralstonia pickettii (AU); 40% preservative, 8 hour) | MBC test growth score (Ralstonia pickettii (AU); 40% preservative, 24 hour) | MBC test growth score (Ralstonia pickettii (AU); 50% preservative, 8 hour) | MBC test growth score (Ralstonia pickettii (AU); 50% preservative, 24 hour) | MBC test growth score (Ralstonia pickettii (AU); 60% preservative, 8 hour) | MBC test growth score (Ralstonia pickettii (AU); 60% preservative, 24 hour) | MBC test growth score (Ralstonia pickettii (AU); 70% preservative, 8 hour) | MBC test growth score (Ralstonia pickettii (AU); 70% preservative, 24 hour) | MBC test growth score (Ralstonia pickettii (AU); 80% preservative, 8 hour) | MBC test growth score (Ralstonia pickettii (AU); 90% preservative, 8 hour) | MBC test growth score (Ralstonia pickettii (AU); 100% preservative, 8 hour) | MBC test growth score ([1]; 10% preservative, 8 hour) | MBC test growth score ([1]; 10% preservative, 24 hour) | MBC test growth score ([1]; 10% preservative, 48 hour) | MBC test growth score ([1]; 10% preservative, 72 hour) | MBC test growth score ([1]; 20% preservative, 8 hour) | MBC test growth score ([1]; 20% preservative, 24 hour) | MBC test growth score ([1]; 20% preservative, 48 hour) | MBC test growth score ([1]; 20% preservative, 72 hour) | MBC test growth score ([1]; 30% preservative, 8 hour) | MBC test growth score ([1]; 30% preservative, 24 hour) | MBC test growth score ([1]; 30% preservative, 48 hour) | MBC test growth score ([1]; 30% preservative, 72 hour) | MBC test growth score ([1]; 40% preservative, 8 hour) | MBC test growth score ([1]; 40% preservative, 24 hour) | MBC test growth score ([1]; 40% preservative, 48 hour) | MBC test growth score ([1]; 40% preservative, 72 hour) | MBC test growth score ([1]; 50% preservative, 8 hour) | MBC test growth score ([1]; 50% preservative, 24 hour) | MBC test growth score ([1]; 50% preservative, 48 hour) | MBC test growth score ([1]; 50% preservative, 72 hour) | MBC test growth score ([1]; 60% preservative, 8 hour) | MBC test growth score ([1]; 60% preservative, 24 hour) | MBC test growth score ([1]; 60% preservative, 48 hour) | MBC test growth score ([1]; 60% preservative, 72 hour) | MBC test growth score ([1]; 70% preservative, 8 hour) | MBC test growth score ([1]; 70% preservative, 24 hour) | MBC test growth score ([1]; 70% preservative, 48 hour) | MBC test growth score ([1]; 70% preservative, 72 hour) | MBC test growth score ([1]; 80% preservative, 8 hour) | MBC test growth score ([1]; 80% preservative, 24 hour) | MBC test growth score ([1]; 80% preservative, 48 hour) | MBC test growth score ([1]; 80% preservative, 72 hour) | MBC test growth score ([1]; 90% preservative, 8 hour) | MBC test growth score ([1]; 90% preservative, 24 hour) | MBC test growth score ([1]; 90% preservative, 48 hour) | MBC test growth score ([1]; 90% preservative, 72 hour) | MBC test growth score ([1]; 100% preservative, 8 hour) | MBC test growth score ([1]; 100% preservative, 24 hour) | MBC test growth score ([1]; 100% preservative, 48 hour) | MBC test growth score ([1]; 100% preservative, 72 hour)
8: MBC test growth score (Ralstonia pickettii (AU); 70% preservative, 72 hour)
No kill @ 100%: total kill at % preservative (MBC) (Ralstonia pickettii (AU); [2]) | total kill at % preservative (MBC) [1, 2]
